{
  "source": "ChEMBL document CHEMBL3046157",
  "about": "“Synthesis of new N-arylamino(2-furyl)methylphosphonic acid diesters, and in vitro evaluation of their cytotoxicity against esophageal cancer cells” (Med Chem Res, 2013)",
  "key": {"[1]": {"assay": "Cytotoxicity against Homo sapiens (human) KYSE-150 cells assessed as inhibition of cell survival after 24 hr by MTT assay", "type": "functional, cell-based", "conditions": "KYSE-150, 24 h"}, "KYSE-270": {"tested_on": "KYSE-270", "assay": "Cytotoxicity against Homo sapiens (human) KYSE-270 cells assessed as inhibition of cell survival after 24 hr by MTT assay", "type": "functional, cell-based", "conditions": "KYSE-270, 24 h"}, "[2]": {"assay": "Cytotoxicity against Homo sapiens (human) HET-1A cells assessed as inhibition of cell survival after 24 hr by MTT assay", "type": "cell-based"}, "[3]": {"assay": "Cytotoxicity against Homo sapiens (human) KYSE-30 cells assessed as inhibition of cell survival after 24 hr by MTT assay", "type": "functional, cell-based", "conditions": "KYSE-30, 24 h"}},
  "data": [
    {"smiles": "COc1cccc(NC(c2ccco2)P(=O)(OCc2ccccc2)OCc2ccccc2)c1", "note": "(centres undefined)", "values": [
      {"measurement": "IC50", "setting": "[1]", "result": 200, "unit": "µM"},
      {"measurement": "IC50", "setting": "KYSE-270", "result": 251, "unit": "µM"},
      {"measurement": "IC50", "setting": "[2]", "result": "> 400", "unit": "µM"},
      {"measurement": "IC50", "setting": "[3]", "result": 251, "unit": "µM"}
    ]},
    {"smiles": "COc1ccc(NC(c2ccco2)P(=O)(Oc2ccccc2)Oc2ccccc2)cc1", "note": "(centres undefined)", "values": [
      {"measurement": "IC50", "setting": "[1]", "result": 209, "unit": "µM"},
      {"measurement": "IC50", "setting": "KYSE-270", "result": 205, "unit": "µM"},
      {"measurement": "IC50", "setting": "[2]", "result": "> 400", "unit": "µM"},
      {"measurement": "IC50", "setting": "[3]", "result": "> 400", "unit": "µM"}
    ]},
    {"smiles": "Cc1cccc(/N=C/c2ccco2)c1", "note": "[N-FURFURYLIDENE-M-TOLUIDINE]", "values": [
      {"measurement": "IC50", "setting": "[1]", "result": 50.1, "unit": "µM"},
      {"measurement": "IC50", "setting": "KYSE-270", "result": 111, "unit": "µM"},
      {"measurement": "IC50", "setting": "[2]", "result": "> 400", "unit": "µM"},
      {"measurement": "IC50", "setting": "[3]", "result": 158, "unit": "µM"}
    ]},
    {"smiles": "COc1ccccc1/N=C/c1ccco1", "note": "[N-FURFURYLIDENE-O-ANISIDINE]", "values": [
      {"measurement": "IC50", "setting": "[1]", "result": "> 400", "unit": "µM"},
      {"measurement": "IC50", "setting": "KYSE-270", "result": "> 400", "unit": "µM"},
      {"measurement": "IC50", "setting": "[2]", "result": "> 400", "unit": "µM"},
      {"measurement": "IC50", "setting": "[3]", "result": "> 400", "unit": "µM"}
    ]},
    {"smiles": "Cc1ccc(/N=C\\c2ccco2)cc1", "note": "[N-FURFURYLIDENE-P-TOLUIDINE]", "values": [
      {"measurement": "IC50", "setting": "[1]", "result": 380, "unit": "µM"},
      {"measurement": "IC50", "setting": "KYSE-270", "result": 398, "unit": "µM"},
      {"measurement": "IC50", "setting": "[2]", "result": "> 400", "unit": "µM"},
      {"measurement": "IC50", "setting": "[3]", "result": "> 400", "unit": "µM"}
    ]},
    {"smiles": "COc1ccc(NC(c2ccco2)P(=O)(OC)OC)cc1", "note": "(centres undefined)", "values": [
      {"measurement": "IC50", "setting": "[1]", "result": 166, "unit": "µM"},
      {"measurement": "IC50", "setting": "KYSE-270", "result": 224, "unit": "µM"},
      {"measurement": "IC50", "setting": "[2]", "result": "> 400", "unit": "µM"},
      {"measurement": "IC50", "setting": "[3]", "result": 316, "unit": "µM"}
    ]},
    {"smiles": "Cc1ccc(NC(c2ccco2)P(=O)(Oc2ccccc2)Oc2ccccc2)cc1", "note": "(centres undefined)", "values": [
      {"measurement": "IC50", "setting": "[1]", "result": "> 400", "unit": "µM"},
      {"measurement": "IC50", "setting": "KYSE-270", "result": "> 400", "unit": "µM"},
      {"measurement": "IC50", "setting": "[2]", "result": "> 400", "unit": "µM"},
      {"measurement": "IC50", "setting": "[3]", "result": "> 400", "unit": "µM"}
    ]},
    {"smiles": "Cc1ccccc1NC(c1ccco1)P(=O)(Oc1ccccc1)Oc1ccccc1", "note": "(centres undefined)", "values": [
      {"measurement": "IC50", "setting": "[1]", "result": "> 400", "unit": "µM"},
      {"measurement": "IC50", "setting": "KYSE-270", "result": "> 400", "unit": "µM"},
      {"measurement": "IC50", "setting": "[2]", "result": "> 400", "unit": "µM"},
      {"measurement": "IC50", "setting": "[3]", "result": 251, "unit": "µM"}
    ]},
    {"smiles": "COc1ccccc1NC(c1ccco1)P(=O)(OC)OC", "note": "(centres undefined)", "values": [
      {"measurement": "IC50", "setting": "[1]", "result": 51.3, "unit": "µM"},
      {"measurement": "IC50", "setting": "KYSE-270", "result": 77.4, "unit": "µM"},
      {"measurement": "IC50", "setting": "[2]", "result": "> 400", "unit": "µM"},
      {"measurement": "IC50", "setting": "[3]", "result": 38, "unit": "µM"}
    ]},
    {"smiles": "Cc1cccc(NC(c2ccco2)P(=O)(Oc2ccccc2)Oc2ccccc2)c1", "note": "(centres undefined)", "values": [
      {"measurement": "IC50", "setting": "[1]", "result": "> 400", "unit": "µM"},
      {"measurement": "IC50", "setting": "KYSE-270", "result": "> 400", "unit": "µM"},
      {"measurement": "IC50", "setting": "[2]", "result": "> 400", "unit": "µM"},
      {"measurement": "IC50", "setting": "[3]", "result": 380, "unit": "µM"}
    ]},
    {"smiles": "COc1ccc(/N=C/c2ccco2)cc1", "note": "[N-FURFURYLIDENE-P-ANISIDINE]", "values": [
      {"measurement": "IC50", "setting": "[1]", "result": "> 400", "unit": "µM"},
      {"measurement": "IC50", "setting": "KYSE-270", "result": "> 400", "unit": "µM"},
      {"measurement": "IC50", "setting": "[2]", "result": "> 400", "unit": "µM"},
      {"measurement": "IC50", "setting": "[3]", "result": "> 400", "unit": "µM"}
    ]}
  ]
}
